What was measured:
CYP3A5 = molecular target: T1, CYP3A5 (Homo sapiens, UniProt P20815); format: in vitro ADME
T1 construct: made in house; host or cells: E. coli membrane fraction (inferred from the pCW negative control and the general expression paragraph)
Description: Using a 96-well microplate, the activity of various human P450 molecular species in oxygen sensor/immobilized P450 toward capsaicin was evaluated. The response to a solution with a substrate was compared to the response to a solution without a substrate and the activity of each molecular species was standardized. CYP2C9, CYP1A2, CYP2D6, CYP3A4, CYP2B6, CYP2C19(1A,1B), CYP2E1, CYP1A1, CYP2C8, CYP2W1, CYP4X1, CYP17A1, CYP27A1, CYP51A1, CYP2A6, CYP2A13, CYP1B1, CYP2C18, CYP2J2, CYP3A5, CYP2R1 and CYP2B6 were used as the P450. Furthermore, a membrane fraction (pCW) derived from E. coli was used as a negative control without human P450. […] The longitudinal axis of FIG. 11 indicates the value obtained by dividing the value of the response with a substrate by the value of the response without a substrate (background oxygen consumption) and standardizing the obtained value. As is clear from the figure, various molecular species show activity toward each compound. […] This also indicates the possibility that activities of human P450 toward pharmaceutical compounds and like compounds can be detected in a parallel manner.

human CYP1A1 [1] = molecular target: T2, human CYP1A1 (Homo sapiens, UniProt P04798); assay: Competitive assay between fluorogenic substrate (7-ER) and non-fluorogenic substrate using caged-G6P; format: biochemical; conditions: benzopyrene 0.1 and 1 μM; 7-ER 0.1 to 1.5 μM
T2 construct: made in house; host or cells: E. coli DH5alpha, membrane fraction
T2 sequence (P04798 1-512): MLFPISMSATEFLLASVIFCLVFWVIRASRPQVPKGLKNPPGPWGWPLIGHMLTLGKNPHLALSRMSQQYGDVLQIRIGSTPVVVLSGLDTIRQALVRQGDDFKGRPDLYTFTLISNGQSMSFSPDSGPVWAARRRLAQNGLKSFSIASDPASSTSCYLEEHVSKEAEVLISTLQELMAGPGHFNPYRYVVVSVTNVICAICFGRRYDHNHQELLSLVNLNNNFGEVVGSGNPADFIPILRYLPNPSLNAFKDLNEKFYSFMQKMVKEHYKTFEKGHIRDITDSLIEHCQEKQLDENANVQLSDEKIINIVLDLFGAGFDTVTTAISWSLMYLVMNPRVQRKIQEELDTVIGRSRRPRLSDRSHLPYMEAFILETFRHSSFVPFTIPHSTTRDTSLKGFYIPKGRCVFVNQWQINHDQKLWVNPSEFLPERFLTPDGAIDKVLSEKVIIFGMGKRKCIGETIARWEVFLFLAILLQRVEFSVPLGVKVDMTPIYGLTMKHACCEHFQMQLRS
Description: A competitive assay between a fluorogenic substrate (7-ER) and a non-fluorogenic substrate (benzopyrene) was conducted using caged-G6P. An aqueous solution obtained by mixing the following components was used as the reaction liquid: 50 μL of 1 M potassium phosphate buffer solution, 30 μL of 5 mM caged-G6P, 2.89 μL of 69.3 U/mL glucose-6-phosphate […], 15 μL of 100 mM magnesium chloride, 1 μL of 5 mM NADP aqueous solution, 10.25 μL of P450 membrane fractions (human CYP1A1), 5 μL of 0.1 M dithiothreitol, and 379.61 μL of ultrapure water. The 7-ER concentration was varied from 0.1 μM to 1.5 μM. The benzopyrene concentrations were 0.1 μM and 1 μM. After UV light irradiation, incubation was performed for 30 minutes to carry out the P450 enzymatic reaction. Thereafter, 25 μL of 30% trichloroacetic acid was added thereto to terminate the enzymatic reaction. By adding 500 μL of chloroform to the reaction liquid and stirring the mixture for 1 minute, the […] (7HR) generated by the reaction was extracted in chloroform. […] After centrifuging for 1 minute, the […] was transferred to a cuvette, and the fluorescence spectra thereof were measured under the following conditions. Excitation wavelength: 366 nm, fluorescence wavelength: 380 to 600 nm. The maximum fluorescence was used to quantify the 7HR. […]

human CYP1A1 [2] = molecular target: T2, human CYP1A1; assay: Substrate metabolic activity on immobilized P450/oxygen sensor vertically integrated chip (fluorescence response of oxygen sensor); format: in vitro ADME; conditions: 0.5 mM chlortoluron
Description: A ruthenium complex (Ru(dpp)3Cl2) doped sol solution was prepared as described in Anal. Chem. 75 (2003) 2407-2413 with small modifications as follows. TEOS (0.29 mL) was mixed with 0.612 mL of octyl-triEOS, 0.625 mL of ethanol, and 0.2 mL of 0.1 M HCl by stirring for 1 hour at room temperature. Then, 1.725 mL of ethanol was added to the solution to dilute the sol in order to improve the quality of the oxygen sensing film to be ultimately formed. The solution was further stirred for 1 hour. To prepare an Ru(dpp)3Cl2 doped sol, 100 μL of 2 mM Ru(dpp)3Cl2 in ethanol was mixed with 300 μL of the above-mentioned sol solution. This solution was capped and stirred for 30 min, and 10 μL thereof was pipetted into each well of the microplate. The microplate was stored in the dark at room temperature for gelling and aging for 6 days. In order to increase the hydrophilicity of the surface of the oxygen sensor to improve the attachment with hydrogel, the surface of the microarrays was modified with poly (vinyl acetate) (PVAC).
Agarose was dissolved in deionized water to form a 1.3% (w/w) solution at 60° C. This solution was cooled to about 38° C. […] The microarrays were kept in a refrigerator at 4° C. until use.
TEOS sol was prepared by mixing 0.5 mL of TEOS, 0.25 mL of deionized water, and 12.5 μL of 0.1 M HCl and stirring for 3 hours to form a homogeneous sol. The sol was diluted four times with deionized water. […]
In order to measure the substrate metabolic activities using an immobilized P450/oxygen sensor vertically integrated chip (i.e., a chip comprising an immobilized P450 and an oxygen sensor vertically integrated therein), a study was conducted using immobilized human CYP1A1 as the P450 and chlortoluron (a herbicide) as a substrate. […] After the addition of the substrate solution into the microarrays, the microplate was quickly placed onto the platform of a microplate reader for the fluorescence measurement. Fluorescence intensity was recorded every 5 min for 3 hours.

T1 sequence (P20815 whole entry): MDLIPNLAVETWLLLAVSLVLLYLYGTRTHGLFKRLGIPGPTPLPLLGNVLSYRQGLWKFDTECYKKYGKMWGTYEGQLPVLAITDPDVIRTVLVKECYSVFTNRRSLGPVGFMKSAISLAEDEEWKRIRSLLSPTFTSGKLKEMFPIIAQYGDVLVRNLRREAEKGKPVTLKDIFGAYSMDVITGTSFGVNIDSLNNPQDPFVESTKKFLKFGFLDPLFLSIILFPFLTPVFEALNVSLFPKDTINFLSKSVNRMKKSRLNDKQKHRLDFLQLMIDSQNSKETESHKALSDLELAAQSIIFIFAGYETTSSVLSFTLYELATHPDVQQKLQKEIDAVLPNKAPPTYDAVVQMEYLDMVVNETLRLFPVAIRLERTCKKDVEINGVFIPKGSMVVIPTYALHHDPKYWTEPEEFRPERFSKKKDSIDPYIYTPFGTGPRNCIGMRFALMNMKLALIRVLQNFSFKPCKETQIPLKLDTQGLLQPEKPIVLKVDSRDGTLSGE

For `COc1cc(CNC(=O)CCCC/C=C/C(C)C)ccc1O` [capsaicin], the “oxygen sensor response normalized by the response toward a solution without a substrate (peak height, FIG. 11)” value (CYP3A5) was “particularly high”.

`c1ccc2c(c1)c1cccc3ccc4cccc2c4c31` [benzopyrene] was tested, and the “mode of inhibition of 7-ER metabolism (effect on initial reaction velocity)” value (human CYP1A1 [1]) was “noncompetitive inhibitor”.

For `Cc1ccc(NC(=O)N(C)C)cc1Cl` [chlortoluron], the “change in fluorescence intensity of the oxygen sensing layer (oxygen consumption due to metabolic reaction)” value (from here on “change in fluorescence intensity”) (human CYP1A1 [2]; P450 encapsulated in Ludox silica gel) was “only a limited increase”, the “change in fluorescence intensity” value (human CYP1A1 [2]; P450 encapsulated in TEOS silica gel) was “no significant fluorescence increase” and the “change in fluorescence intensity” value (human CYP1A1 [2]; P450 encapsulated in agarose gel, versus NADPH solution without substrate) was “significantly increased”.

Source: patent US20120288885A1, “METHOD AND KIT FOR MEASURING ENZYMATIC ACTIVITIES OF VARIOUS CYTOCHROME P450 MOLECULE SPECIES COMPREHENSIVELY AND WITH HIGH EFFICIENCY” (NATIONAL INSTITUTE OF ADVANCED INDUSTRIAL SCIENCE AND …, priority 2009, published 2012)
